For the data set the following is noted: for aqueous solubility: pH 6.8.

Values after ≈ are worked out from the molar mass of the structure shown. A value given as a limit tells only on which side of the number the result lay.

The record followed here is the Biogen ADME set (Fang et al. 2023).

Broadly, the aqueous solubility is the concentration that dissolves in the medium under given conditions. Low readings indicate a poorly soluble substance, high ones a readily soluble substance.

In the case of `CN(Cc1c(F)cccc1Cl)C(=O)c1ccc(-n2ccnc2)nc1`, the MDR1-MDCK efflux ratio was determined as 0.625; the intrinsic clearance, human liver microsomes was found to be 26.3 mL/min/kg; the intrinsic clearance, rat liver microsomes was determined as 1660 mL/min/kg; the aqueous solubility was determined as 54.1 µg/mL (≈ 157 µM).

Regarding `O=C1/C(=C2/CCCCCN2)C(Nc2ccccc2)=NN1c1ccccc1`, the MDR1-MDCK efflux ratio was determined as 0.737 and the aqueous solubility was determined as 0.54 µg/mL (≈ 1.56 µM).

With `C=CCNC(=O)C1(Cc2ccc(-c3ccccc3)cc2)CCN(C(=O)c2cccnc2)CC1`, the MDR1-MDCK efflux ratio was found to be 28; the intrinsic clearance, human liver microsomes was 76.7 mL/min/kg; the intrinsic clearance, rat liver microsomes came to 557 mL/min/kg; the aqueous solubility turned out to be 4 µg/mL (≈ 9.1 µM).

In the case of `O=C(NN1CCOCC1)c1ccc(Cl)c(Cl)c1`, the MDR1-MDCK efflux ratio came to 0.691; the intrinsic clearance, human liver microsomes is at most 4.74 mL/min/kg; the intrinsic clearance, rat liver microsomes is at most 10.7 mL/min/kg.

Consider `CN(C)c1nccc(N2CCN(CCCCCF)CC2)n1`, for which the MDR1-MDCK efflux ratio came out at 0.419; the intrinsic clearance, human liver microsomes worked out at 32.4 mL/min/kg; the intrinsic clearance, rat liver microsomes stood at 1440 mL/min/kg.

Consider `Cn1cc(C2CCN(CC(=O)N3CCc4sccc4C3)CC2)cn1`, for which the MDR1-MDCK efflux ratio is 2.76; the intrinsic clearance, human liver microsomes is at most 4.74 mL/min/kg; the intrinsic clearance, rat liver microsomes turned out to be 126 mL/min/kg; the aqueous solubility turned out to be 62 µg/mL (≈ 180 µM).

Take `CC1CN(C(=O)c2cccnc2N2CCOCC2)CC(c2ccccc2)O1` (stereo not given): the MDR1-MDCK efflux ratio was 5.22; the fraction unbound, human plasma was 0.374; the fraction unbound, rat plasma was 0.359; the intrinsic clearance, human liver microsomes was 35.9 mL/min/kg. For the same molecule, the intrinsic clearance, rat liver microsomes was found to be 554 mL/min/kg.

As for `O=C(NC1CCCC1)N1CCN(c2nccn3nc4c(c23)CCCC4)CC1`, the MDR1-MDCK efflux ratio came out at 2; the intrinsic clearance, human liver microsomes worked out at 118 mL/min/kg; the intrinsic clearance, rat liver microsomes is 464 mL/min/kg; the aqueous solubility was 17.1 µg/mL (≈ 46.4 µM).

With `O=C(OCC1CCSCC1)c1cccc(-n2cccn2)n1`, the MDR1-MDCK efflux ratio turned out to be 0.495; the intrinsic clearance, human liver microsomes was 679 mL/min/kg; the intrinsic clearance, rat liver microsomes was found to be 2200 mL/min/kg.

As for `Cc1nc2ccc(NC(=O)c3sc(-c4ccccn4)nc3C)cc2s1`, the MDR1-MDCK efflux ratio is 0.685; the intrinsic clearance, human liver microsomes is 10.2 mL/min/kg; the intrinsic clearance, rat liver microsomes stood at 38.5 mL/min/kg; the aqueous solubility was 1.3 µg/mL (≈ 3.55 µM).

Turning to `C[C@@H](Cn1nc2c(cc1=O)CCCCC2)NC(=O)CCc1ccccc1`, the intrinsic clearance, human liver microsomes worked out at 222 mL/min/kg and the intrinsic clearance, rat liver microsomes stood at 3560 mL/min/kg.

Take `O=C(C1CCCN(S(=O)(=O)c2ccccc2)C1)N1CCc2ccccc2C1` (stereo not given): the intrinsic clearance, human liver microsomes was 240 mL/min/kg; the intrinsic clearance, rat liver microsomes amounted to 3170 mL/min/kg; the aqueous solubility stood at 33.9 µg/mL (≈ 88 µM).

In the case of `Cc1cccnc1Nc1cccc(C2CCCN(CC(=O)Nc3nccs3)C2)n1` (stereo not given), the MDR1-MDCK efflux ratio stood at 1.49; the fraction unbound, human plasma worked out at 0.0152; the fraction unbound, rat plasma turned out to be 0.0434; the intrinsic clearance, human liver microsomes amounted to 89.9 mL/min/kg. The molecule also gave an intrinsic clearance, rat liver microsomes of 582 mL/min/kg.

With `Cc1[nH]nc2c1C1(CCCCC1)CC(=O)N2`, the MDR1-MDCK efflux ratio came out at 3.36; the fraction unbound, human plasma came to 0.21; the fraction unbound, rat plasma came out at 0.193; the intrinsic clearance, human liver microsomes is 8.44 mL/min/kg. The molecule further showed an intrinsic clearance, rat liver microsomes of 45.6 mL/min/kg.

In the case of `COc1cc(C#N)ccc1Oc1nc2ccccc2o1`, the aqueous solubility was found to be 8.7 µg/mL (≈ 32.7 µM).

`Cc1ccccc1S(=O)(=O)Nc1c(C)ccnc1Cl`: the MDR1-MDCK efflux ratio turned out to be 0.795; the intrinsic clearance, human liver microsomes is at most 4.74 mL/min/kg; the intrinsic clearance, rat liver microsomes was determined as 194 mL/min/kg.

As to `COc1cc2ncn(-c3cc(OCc4ccccc4S(C)(=O)=O)c(C#N)s3)c2cc1OC`, the MDR1-MDCK efflux ratio stood at 8.01 and the aqueous solubility is 0.3 µg/mL (≈ 0.639 µM).

The molecule `Cc1nnc(NC(=O)c2nn(-c3ccc(F)cc3)c3c2CCCC3)s1` displayed an intrinsic clearance, human liver microsomes of 42 mL/min/kg; an intrinsic clearance, rat liver microsomes of 227 mL/min/kg; an aqueous solubility of 2.9 µg/mL (≈ 8.11 µM).

As for `Cc1nnc(COc2cccc(-n3ccnc3)c2)n1C1CC1`, the MDR1-MDCK efflux ratio amounted to 23.1; the intrinsic clearance, human liver microsomes is at most 4.74 mL/min/kg; the intrinsic clearance, rat liver microsomes came to 16.6 mL/min/kg.

With `C[C@@H](c1ccccc1)N(C)C(=O)NCCN(C)CCO`, the MDR1-MDCK efflux ratio came out at 18.4; the intrinsic clearance, human liver microsomes is at most 4.74 mL/min/kg; the intrinsic clearance, rat liver microsomes worked out at 1140 mL/min/kg.

As to `CNC(=O)c1ccc2c(c1)NC(=O)/C2=C(\Nc1cccc(CN(C)C)c1)c1ccccc1`, the aqueous solubility was determined as 8.39 µg/mL (≈ 19.7 µM).

For the molecule `CCOC(=O)Cc1c(C)[nH]c2c(-c3ccccc3)cnn2c1=O`, the MDR1-MDCK efflux ratio is 18; the intrinsic clearance, human liver microsomes is 6.21 mL/min/kg; the intrinsic clearance, rat liver microsomes was 89.6 mL/min/kg; the aqueous solubility amounted to 14.9 µg/mL (≈ 47.9 µM).

In the case of `CCc1nnc(Oc2cccnc2)c(C#N)c1CC`, the MDR1-MDCK efflux ratio came to 0.781; the intrinsic clearance, human liver microsomes was determined as 4.94 mL/min/kg; the intrinsic clearance, rat liver microsomes stood at 21.6 mL/min/kg; the aqueous solubility is 30.5 µg/mL (≈ 120 µM).

Regarding `Cn1ccc(C(=O)N2CCCC(c3cccc(-c4cccc(Cl)c4)n3)C2)n1` (stereo not given), the MDR1-MDCK efflux ratio is 0.822; the intrinsic clearance, human liver microsomes was found to be 63 mL/min/kg; the intrinsic clearance, rat liver microsomes turned out to be 669 mL/min/kg; the aqueous solubility worked out at 26.7 µg/mL (≈ 70.1 µM).

Take `Cn1cc(NC(=O)c2cnn3cccnc23)c(C2CCCCC2)n1`: the MDR1-MDCK efflux ratio amounted to 1.23; the intrinsic clearance, human liver microsomes amounted to 37.7 mL/min/kg; the intrinsic clearance, rat liver microsomes amounted to 188 mL/min/kg.

As to `CCCNC(=O)C1(NCc2cncnc2)CCCCC1`, the MDR1-MDCK efflux ratio was determined as 7.46; the intrinsic clearance, human liver microsomes is 43.2 mL/min/kg; the intrinsic clearance, rat liver microsomes was found to be 127 mL/min/kg.

Regarding `Cc1ccc(NC(=O)CN(C)C2CCCCC2)cc1S(=O)(=O)N(C)C`, the MDR1-MDCK efflux ratio is 1.45; the intrinsic clearance, human liver microsomes was 432 mL/min/kg; the intrinsic clearance, rat liver microsomes came to 3870 mL/min/kg.

Turning to `O=c1[nH]c2ccccc2n1C1CCN(Cc2csc(COc3ccc(F)cc3)n2)CC1`, the intrinsic clearance, human liver microsomes turned out to be 209 mL/min/kg and the intrinsic clearance, rat liver microsomes is 1090 mL/min/kg.

For the molecule `COc1ccccc1CNC(=O)c1cnc(C2CCN(C(=O)C(C)(C)C)CC2)nc1C`, the MDR1-MDCK efflux ratio stood at 9.52; the intrinsic clearance, human liver microsomes was 218 mL/min/kg; the intrinsic clearance, rat liver microsomes was determined as 2960 mL/min/kg; the aqueous solubility was determined as 69.7 µg/mL (≈ 164 µM).

Turning to `CC(C)N(C(=O)Cn1cccc2cc(C(F)F)nc1-2)C(C)C`, the MDR1-MDCK efflux ratio was 4.05; the intrinsic clearance, human liver microsomes worked out at 285 mL/min/kg; the intrinsic clearance, rat liver microsomes was determined as 436 mL/min/kg.

As to `CS(=O)(=O)Nc1ccccc1-c1ccncc1`, the MDR1-MDCK efflux ratio came out at 1.27; the intrinsic clearance, human liver microsomes is at most 4.74 mL/min/kg; the intrinsic clearance, rat liver microsomes was determined as 100 mL/min/kg.

In turn, `c1cnc2c(Oc3ncnc4sccc34)cccc2c1` returned an intrinsic clearance, human liver microsomes of 44.3 mL/min/kg and an intrinsic clearance, rat liver microsomes of 244 mL/min/kg.

Take `Cc1cc(CN2CCN(c3ncccn3)CC2)on1`: the MDR1-MDCK efflux ratio is 0.608; the intrinsic clearance, human liver microsomes is at most 4.74 mL/min/kg; the intrinsic clearance, rat liver microsomes turned out to be 91.5 mL/min/kg; the aqueous solubility was 36.7 µg/mL (≈ 141 µM).

Turning to `COc1cccc(-c2nnn(-c3ncnc4sc5c(c34)CCC5)n2)c1`, the aqueous solubility was found to be 0.26 µg/mL (≈ 0.742 µM).

For the molecule `Fc1ccc(F)c2c(NCc3ccc(N4CCOCC4)nc3)ccnc12`, the MDR1-MDCK efflux ratio is 1.29; the intrinsic clearance, human liver microsomes was determined as 40.6 mL/min/kg; the intrinsic clearance, rat liver microsomes was 151 mL/min/kg; the aqueous solubility came to 44.2 µg/mL (≈ 124 µM).

As for `CCCc1ccc(C(=O)CSc2nncs2)cc1`, the MDR1-MDCK efflux ratio amounted to 0.471; the intrinsic clearance, human liver microsomes amounted to 276 mL/min/kg; the intrinsic clearance, rat liver microsomes is 1260 mL/min/kg.

With `Brc1nnc(N2CCC(OC3CCCC3)CC2)s1`, the MDR1-MDCK efflux ratio is 0.582; the intrinsic clearance, human liver microsomes worked out at 77.3 mL/min/kg; the intrinsic clearance, rat liver microsomes was determined as 3110 mL/min/kg.

As to `Cc1ccc2[nH]c(CNC(=O)c3cc(C(F)F)nn3C)nc2c1C`, the intrinsic clearance, human liver microsomes amounted to 19.9 mL/min/kg and the intrinsic clearance, rat liver microsomes is 186 mL/min/kg.

`CCn1c(COC(=O)c2ccc(C)s2)nc2cc(S(=O)(=O)N3CCCCC3)ccc21` returned an intrinsic clearance, human liver microsomes of 353 mL/min/kg; an intrinsic clearance, rat liver microsomes of 770 mL/min/kg; an aqueous solubility of 1.04 µg/mL (≈ 2.32 µM).

As for `C[C@H]1O[C@@H](Oc2c(-c3cc(O)c(O)c(O)c3)oc3cc(O)cc(O)c3c2=O)[C@@H](O)[C@H](O)[C@H]1O`, the intrinsic clearance, human liver microsomes is at most 4.74 mL/min/kg and the intrinsic clearance, rat liver microsomes was at most 10.7 mL/min/kg.

With `C(=C\c1ccccc1)/CNCc1ccc2c(c1)OCO2`, the MDR1-MDCK efflux ratio worked out at 0.337; the intrinsic clearance, human liver microsomes is 38.9 mL/min/kg; the intrinsic clearance, rat liver microsomes is 573 mL/min/kg; the aqueous solubility was found to be 40.1 µg/mL (≈ 150 µM).

As for `Cn1c(-c2n[nH]c3c2CCCC3)nnc1N1CCC2(CNC(=O)C2)C1` (stereo not given), the MDR1-MDCK efflux ratio was 5.01; the fraction unbound, human plasma is 0.621; the intrinsic clearance, human liver microsomes was at most 4.74 mL/min/kg.

Regarding `CSc1ccc(NC(=O)Cn2nc(C3CC3)ccc2=O)cc1`, the MDR1-MDCK efflux ratio turned out to be 1.33; the intrinsic clearance, human liver microsomes turned out to be 175 mL/min/kg; the intrinsic clearance, rat liver microsomes worked out at 611 mL/min/kg; the aqueous solubility is 4.75 µg/mL (≈ 15.1 µM).

For `CC(C)c1nc2c(n1C)CCN(c1ncnc3ccccc13)C2`, the MDR1-MDCK efflux ratio turned out to be 4.31; the intrinsic clearance, human liver microsomes is 34.9 mL/min/kg; the intrinsic clearance, rat liver microsomes is 402 mL/min/kg; the aqueous solubility was found to be 53.5 µg/mL (≈ 174 µM).

Regarding `O=c1[nH]c2ccccc2n1C1CCN(Cc2nnc(-c3cc4c(s3)CCCC4)o2)CC1`, the intrinsic clearance, human liver microsomes is 51.8 mL/min/kg; the intrinsic clearance, rat liver microsomes was 1090 mL/min/kg; the aqueous solubility is 2.45 µg/mL (≈ 5.63 µM).

In the case of `COc1cc(CNc2nc3ccccc3nc2C)ccn1`, the MDR1-MDCK efflux ratio turned out to be 0.664; the intrinsic clearance, human liver microsomes was found to be 11 mL/min/kg; the intrinsic clearance, rat liver microsomes was determined as 124 mL/min/kg; the aqueous solubility stood at 26.8 µg/mL (≈ 95.7 µM).

As for `COc1ccc(C)cc1-n1ccc(C(=O)NC(C)C)n1`, the MDR1-MDCK efflux ratio turned out to be 0.545; the intrinsic clearance, human liver microsomes stood at 62.5 mL/min/kg; the intrinsic clearance, rat liver microsomes amounted to 334 mL/min/kg; the aqueous solubility came to 35.7 µg/mL (≈ 131 µM).
